Results on three molecules are retold here after patent publication US10774046B2, “Inhibitors for the treatment of cancer and related methods” (UNIVERSITY OF LOUISVILLE RESEARCH FOUNDATION, INC., priority 2017, dated 2020).

The test system of one data set is LLC tumors. Kind of data set: tumor glucose uptake by FDG micro-PET. Format: in vivo, C57BL/6 mice. The method, then:
At the end of the experiment, animals were euthanized, tumors removed and sections fixed in 10% formaldehyde for immunohistochemistry or snap-frozen in liquid nitrogen for analyses. Subsets of tumor-bearing mice (n=3) were injected i.p. with 2-[^18F]-fluoro-2-deoxyglucose (FDG, 150 μCi, 100 μl) and imaged by micro-positron emission tomography as previously described. Regions of interest in the tumors and cerebellum were quantified in quadruplicate and expressed as the mean±SD of the tumor:cerebellar FDG uptake ratio. Animal experiments were approved by the University of Louisville Institutional Animal Care and Use Committee.
Method: FDG-PET was conducted on tumor-bearing mice to determine acute effects of Formula (VIII) on glucose uptake. C57BL/6 mice (Charles River) with subcutaneous Lewis lung carcinoma tumors were injected intraperitoneally with 100 μCi of ^18F-fluoro-2-deoxy-glucose under isoflurane anesthesia and subjected to a 15-minute static scan 45 minutes after tracer injection at baseline. […] Tumor/cerebellum ROI (regions of interest) were quantified, representative sagittal cuts from mice are shown with arrows showing the tumors on the animals. (* signifies statistical significance).

The subject of data set [1] is H460 cells. Briefly: F2,6BP measurement in cells (coupled enzyme reaction). Format: cell-based, human. The method, then:
Cells or tissues were prepared as previously described and F2,6BP content measured using a coupled enzyme reaction following a modification of the method of Van Schaftingen et al (VAN SCHAFTINGEN E et al. “A kinetic study of pyrophosphate:fructose-6-phosphate phosphotransferase from potato tubers. Application to a microassay of fructose 2,6-bisphosphate” Eur J Biochem (1982) Vol. 129, No. 1, pp. 191-195) and normalized to total cellular protein measured by the bicinchoninic acid assay (BCA, Thermo Scientific). For example, H460 cells were exposed to the indicated concentrations of MPN-2. In order to measure F2,6BP, cells were harvested, washed with PBS, lysed in NaOH/Tris acetate by heating at 80° C. and lysates neutralized to pH 7.2. F2,6BP content was measured using a coupled enzyme reaction following a modified method of Van Schaftingen et al (VAN SCHAFTINGEN E et al. “A kinetic study of pyrophosphate:fructose-6-phosphate phosphotransferase from potato tubers. Application to a microassay of fructose 2,6-bisphosphate” Eur J Biochem (1982) Vol. 129, No. 1, pp. 191-195). The F2,6BP concentration was normalized to total cellular protein measured by the bicinchoninic acid assay (BCA, Thermo Scientific). All data are expressed as the mean±SD of three experiments. Statistical significance was assessed by the two-sample t test (independent variable).
Method: In order to measure F26BP, H460 cells were exposed to increasing concentrations of the agents and were harvested, washed with PBS, lysed in NaOH/Tris acetate by heating at 80° C. and lysates neutralized to pH 7.2. F26BP content was measured using a coupled enzyme reaction following a modified method of Van Schaftingen et al. (Eur J Biochem. 1982; 129(1):191-195). The F26BP concentration was normalized to total cellular protein measured by the bicinchoninic acid assay (BCA, Thermo Scientific).

Data set [2] relates to H460 cells. Briefly: glycolysis assay (3H2O from 5-[3H]glucose). Format: cell-based, human. The method, then:
H460 cells were exposed to the indicated concentrations of MPN-2 and glycolysis production was examined. Cells growing in 6-well plates were incubated in 500 μl of complete medium containing 1 μCi of 5-[^3H]glucose per well for 60 min in 5% CO2 at 37° C. Media was collected, ^3H2O formed via glycolysis from the 5-[^3H]glucose measured and counts normalized as previously described. For example, the medium was then collected and centrifuged to pellet any suspended cells. To separate the ^3H2O formed via glycolysis from the 5-[^3H]glucose added to the medium, an evaporation technique in a sealed system was utilized. Briefly, 150 μl aliquots of medium were added to open tubes that were placed upright inside scintillation vials containing 1 ml of H2O. The scintillation vials were sealed, and the ^3H2O produced by glycolysis through enolase and released to the medium was allowed to equilibrate with the H2O in the outer vial for 48 h at 37° C. The amounts of ^3H2O that had diffused into the surrounding H2O was measured on a Tri-Carb 2910 liquid scintillation analyzer (Perkin Elmer) and compared with ^3H2O and 5-[^3H]glucose standards. Protein concentration was determined using the BCA assay and counts were normalized to protein concentration. All data are expressed as the mean±SD of three experiments. Statistical significance was assessed by the two-sample t test (independent variable).
Method: To examine glycolysis, H460 cells growing in 6-well plates were incubated in 500 μl of complete medium containing 1 μCi of 5-[^3H] glucose per well for 60 min in 5% CO2 at 37° C. The medium was then collected and centrifuged to pellet any suspended cells. To separate the ^3H2O formed via glycolysis from the 5-[^3H]glucose added to the medium, an evaporation technique in a sealed system was utilized. Briefly, 150 μl aliquots of medium were added to open tubes that were placed upright inside scintillation vials containing 1 ml of H2O. The scintillation vials were sealed, and the ^3H2O produced by glycolysis through enolase and released to the medium was allowed to equilibrate with the H2O in the outer vial for 48 h at 37° C. The amounts of ^3H2O that had diffused into the surrounding H2O was measured on a Tri-Carb 2910 liquid scintillation analyzer (Perkin Elmer) and compared with ^3H2O and 5-[^3H]glucose standards. Protein concentration was determined using the BCA assay and counts were normalized to protein concentration (previously described in CHESNEY et al. Oncotarget. 2014; 5(16):6670-6686.)

Data set [3] relates to Lewis lung carcinoma (LLC) tumors. Kind of data set: Lewis lung carcinoma tumor growth in syngeneic mice. Format: in vivo, C57BL/6 mice. Here is the method:
For xenograft studies, exponentially growing LLC or H460 cells were detached, washed and resuspended in PBS. Female C57BL/6 mice (Jackson Labs) were injected with LLC cells (n=10/group, s.c., 1×10^6 cells) and female BALB/c athymic mice (Jackson Labs) with H460 cells (n=10/group, s.c, 5×10^6 cells). Tumor masses were determined in a blinded fashion with Vernier calipers using the formula: mass (mg)=(width, mm)^2×(length, mm)/2 as previously described. When tumor masses were 150-200 mg, mice were randomized to daily intraperitoneal DMSO or 5MPN at the indicated dose in 50 μL DMSO. Tumor measurements and body weights were followed daily. All data are expressed as the mean±SD of two experiments. Statistical significance was assessed by the two-sample t test (independent variable).
Method: C57BL/6 mice (Charles River) were implanted with 1×10^6 Lewis lung carcinoma cells subcutaneously and, after tumors developed, were followed by caliper measurements daily to quantify tumor mass using the formula: tumor mass=(length×width^2)/2. When tumors were ˜150-200 mg, mice were randomized to daily oral DMSO±Formula (VIII) (n=10/group) at 40 mg/kg in 50 μL DMSO and tumor growth followed×9 days. (* signifies statistical significance)

For the molecule `COc1cccc2c(NCCCCCO[N+](=O)[O-])ccnc12` [5MPN, 5-[(8-methoxyquinolin-4-yl)amino]pentyl nitrate], the “2-[18F]-fluoro-2-deoxyglucose uptake” value in the data set with LLC tumors (5MPN 120 mg/kg by gavage, once) was “reduction”. For the same molecule, the “intracellular concentration of F2,6BP” value with H460 cells [1] (H460, 10 μM 5MPN, 6-72 hours) is on record as “reduced”. In addition, the “effect of overexpression of PFKFB4 on reduction in F2,6BP” value in the data set on H460 cells [1] (H460 transfected with PFKFB4, 10 μM 5MPN, 24 hours) is recorded as “reversed”. For the same molecule, the glycolysis entry in the data set on H460 cells [2] (H460, 10 μM 5MPN, 6-72 hours) is “reduced”. In addition, in data set [3] (5MPN 120 mg/kg oral daily, ten days), the tumor growth entry is on record as “suppressed the growth”. The body weight entry in data set [3] (LLC-bearing mice, 120 mg/kg oral daily) was “without affecting body weight”.

Take `COc1cccc2c(NCCCCCNC(=O)C(F)(F)F)ccnc12` [Formula (VIII), 2,2,2-trifluoro-N-(5-((8-methoxyquinolin-4-yl)amino)pentyl)acetamide]: the “tumor FDG uptake” value with LLC tumors (40 mg/kg PO x1, PET after 60 minutes) is “decrease in tumor FDG uptake compared with vehicle”. Moreover, the established tumor growth result in data set [3] (oral 40 mg/kg daily, 9 days) is reported as “decreased established tumor growth”.

“5-[(8-methoxy-2-methylquinolin-1-ium-4-yl)amino]pentyl nitrate [MPN-2]”: in the data set on H460 cells [1] (H460, indicated concentrations of MPN-2), the “F2,6BP production” value is reported as “inhibited”. Moreover, the intracellular glycolysis result in the data set on H460 cells [2] (H460, indicated concentrations of MPN-2, 48 hours) is “decreased”. Besides, in data set [3] (intraperitoneal injection 10 mg/kg daily, eleven days), the tumor growth entry was “suppressed the growth”.
